# Like-named read-outs stand apart in the source and are kept apart here.
# Assays:
# [1] = target: T1, human BRD4 bromodomain II (Homo sapiens, UniProt O60885); test: Bromodomain binding assay (AlphaScreen), BRD4 BDII
# T1 construct: human BRD4 bromodomain II [based on Genbank NM_058243, residues 349-460]; host or cells: E. coli
# Procedure, shortened: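 Tagged BRD4 BDI or BDII constructs, expressed in E. coli, competed against a K5/K8/K12/K16-acetylated biotin-H4 peptide. Proximity signal between bead pairs after room-temperature incubations gave concentration-response curves, from which IC50 was derived.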
# [2] = test system: human SKM-1 acute myeloid leukemia cells; test: SKM-1 antiproliferation cell-based assay (ATPlite); settings: Homo sapiens
# Procedure, shortened: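 Log-phase cells in RPMI 1640/15% FBS were seeded at 34722 cells/mL and exposed for 4 days to nine-concentration DMSO serial dilutions in triplicate. Viability was read as ATP luminescence (ATPlite 1step), and IC50 values came from variable-slope non-linear regression.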
# [3] = AlphaScreen assay, Table C2, read-out: BRD4 BDII IC50
# [4] = SKM-1, 96 h, SKM-1 antiproliferation assay, 4 days, Table C2
# [5] = BRD4 BDII AlphaScreen assay, read-out: BRD4 BD2 IC50
# [6] = SKM-1, SKM-1 antiproliferation assay
SMILES,"IC50 [1, 3]","GI50 [2, 4]","IC50 [1, 5]","GI50 [2, 6]"
"Cc1cc(-c2ccc(-n3ccn(C)c3=O)c(Cl)c2)c(O)c(-c2ccnc(N3CC[C@@](C)(O)C3)c2)n1 [Example 996, (R)-1-(2-chloro-4-(3-hydroxy-2′-(3-hydroxy-3-methylpyrrolidin-1-yl)-6-methyl-[2,4′-bipyridin]-4-yl)phenyl)-3-methyl-1H-imidazol-2(3H)-one]",,,1 to 10 nM,0.3 to 30 nM
"CN1CCN(c2ccc(-c3cccc(-c4cc(-c5ccccc5)nc(N5CCNCC5)c4)c3O)cc2Cl)C1=O [Example 344, 1-(3-chloro-2′-hydroxy-3′-(2-phenyl-6-(piperazin-1-yl)pyridin-4-yl)-[1,1′-biphenyl]-4-yl)-3-methylimidazolidin-2-one]",10 to 100 nM,30 to 300 nM,,
COc1ncc(-c2cc(F)cc(-c3ccc(-n4ccn(C)c4=O)c(Cl)c3)c2O)cc1N1CC[C@]2(CCN2C(C)C)C1 [Example 903],,,0.01 to 1 nM,0.3 to 30 nM
"C[C@@H]1CN(c2cc(-c3cc(F)cc(-c4ccc(-n5ccn(C)c5=O)c(Cl)c4)c3O)cc(=O)n2C)CCN1 [Example 689, (R)-4-(3′-chloro-5-fluoro-2-hydroxy-4′-(3-methyl-2-oxo-2,3-dihydro-1H-imidazol-1-yl)-[1,1′-biphenyl]-3-yl)-1-methyl-6-(3-methylpiperazin-1-yl)pyridin-2(1H)-one]",0.01 to 1 nM,0.3 to 30 nM,,
"Cn1ccn(-c2ccc(-c3cc(F)cc(-c4ccnc(N5CC6CCC(C5)N6)c4)c3O)cc2Cl)c1=O [Example 511, 1-(3′-(2-(3,8-diazabicyclo[3.2.1]octan-3-yl)pyridin-4-yl)-3-chloro-5′-fluoro-2′-hydroxy-[1,1′-biphenyl]-4-yl)-3-methyl-1H-imidazol-2(3H)-one]",1 to 10 nM,0.3 to 30 nM,,
"CN1CCN(c2ccc(-c3cc(F)cc(-c4cnc(CO)c(N5CCNCC5)c4)c3O)cc2Cl)C1=O [Example 387, 1-(3-chloro-5′-fluoro-2′-hydroxy-3′-(6-(hydroxymethyl)-5-(piperazin-1-yl)pyridin-3-yl)-[1,1′-biphenyl]-4-yl)-3-methylimidazolidin-2-one]",1 to 10 nM,30 to 300 nM,,
"Cn1ccn(-c2ccc(-c3cc(F)cc(-c4ccnc(N5CC6CNC6C5)c4)c3O)cc2Cl)c1=O (stereo not shown) [Example 656, 1-(3′-(2-(3,6-diazabicyclo[3.2.0]heptan-3-yl)pyridin-4-yl)-3-chloro-5′-fluoro-2′-hydroxy-[1,1′-biphenyl]-4-yl)-3-methyl-1H-imidazol-2(3H)-one]",0.01 to 1 nM,0.3 to 30 nM,,
"CN1CCN(c2ccc(-c3cc(F)cc(-c4cc(N5CC[C@H](N)C5)c(=O)n(C)c4)c3O)cc2Cl)C1=O [Example 394, (S)-3-(3-aminopyrrolidin-1-yl)-5-(3′-chloro-5-fluoro-2-hydroxy-4′-(3-methyl-2-oxoimidazolidin-1-yl)-[1,1′-biphenyl]-3-yl)-1-methylpyridin-2(1H)-one]",1 to 10 nM,30 to 300 nM,,
"Cn1cc(-c2cc(F)cc(-c3ccc(-n4ccn(C)c4=O)c(Cl)c3)c2O)cc(N2CCC[C@H](N)C2)c1=O [Example 425, (S)-3-(3-aminopiperidin-1-yl)-5-(3′-chloro-5-fluoro-2-hydroxy-4′-(3-methyl-2-oxo-2,3-dihydro-1H-imidazol-1-yl)-[1,1′-biphenyl]-3-yl)-1-methylpyridin-2(1H)-one]",0.01 to 1 nM,30 to 300 nM,,
"CC(=O)Nc1ccc(-c2cccc(-c3cc(NCCO)nc(N4CCNCC4)c3)c2O)cc1F [Example 333, N-(3-fluoro-2′-hydroxy-3′-(2-((2-hydroxyethyl)amino)-6-(piperazin-1-yl)pyridin-4-yl)-[1,1′-biphenyl]-4-yl)acetamide]",1 to 10 nM,30 to 300 nM,,
"Cn1ccn(-c2ccc(-c3cc(F)cc(-c4cncc(N5CC[C@@H](O)[C@H](N)C5)c4)c3O)cc2Cl)c1=O [Example 495, 1-(3′-(5-((3R,4R)-3-amino-4-hydroxypiperidin-1-yl)pyridin-3-yl)-3-chloro-5′-fluoro-2′-hydroxy-[1,1′-biphenyl]-4-yl)-3-methyl-1H-imidazol-2(3H)-one]",1 to 10 nM,30 to 300 nM,,
"Cc1cc(-c2ccc(-n3ccn(C)c3=O)c(Cl)c2)c(O)c(-c2cnc(C)c(N3CCC4(CCN4C(C)C)C3)c2)n1 (stereo not shown) [Example 974, 1-(2-chloro-4-(3-hydroxy-5′-(1-isopropyl-1,6-diazaspiro[3.4]octan-6-yl)-6,6′-dimethyl-[2,3′-bipyridin]-4-yl)phenyl)-3-methyl-1H-imidazol-2(3H)-one]",,,0.01 to 1 nM,0.3 to 30 nM
Cc1ncc(-c2cc(F)cc(-c3ccc(-n4ccn(C)c4=O)c(Cl)c3)c2O)cc1N1CC(C)(C)[C@](C)(O)C1 [Example 884],,,1 to 10 nM,30 to 300 nM
"CC(=O)Nc1ccc(-c2cccc(-c3cc(OC4CCC(O)CC4)nc(N4CCNCC4)c3)c2O)cc1F (stereo not shown) [Example 361, N-(3-fluoro-2′-hydroxy-3′-(2-((4-hydroxycyclohexyl)oxy)-6-(piperazin-1-yl)pyridin-4-yl)-[1,1′-biphenyl]-4-yl)acetamide]",10 to 100 nM,30 to 300 nM,,

# Next, values leading:
"IC50 [1, 3]","GI50 [2, 4]","IC50 [1, 5]","GI50 [2, 6]",SMILES
1 to 10 nM,30 to 300 nM,,,"Cn1ccn(-c2ccc(-c3cc(F)cc(-c4cnc(C(F)(F)F)c(N5CCN(C(C)(C)C)CC5)c4)c3O)cc2Cl)c1=O [Example 805, 1-(3′-(5-(4-(tert-butyl)piperazin-1-yl)-6-(trifluoromethyl)pyridin-3-yl)-3-chloro-5′-fluoro-2′-hydroxy-[1,1′-biphenyl]-4-yl)-3-methyl-1H-imidazol-2(3H)-one]"
1 to 10 nM,30 to 300 nM,,,"CN1CCN(c2ccc(-c3cccc(-c4cncc(N5CCC(N)CC5)c4)c3O)cc2Cl)C1=O [Example 305, 1-(3′-(5-(4-aminopiperidin-1-yl)pyridin-3-yl)-3-chloro-2′-hydroxy-[1,1′-biphenyl]-4-yl)-3-methylimidazolidin-2-one]"
,,0.01 to 1 nM,0.3 to 30 nM,"CNc1ncc(-c2cc(F)cc(-c3ccc(-n4ccn(C)c4=O)c(Cl)c3)c2O)cc1N1CCN(C(C)(C)C)CC1 [Example 923, 1-(3′-(5-(4-(tert-Butyl)piperazin-1-yl)-6-(methylamino)pyridin-3-yl)-3-chloro-5′-fluoro-2′-hydroxy-[1,1′-biphenyl]-4-yl)-3-methyl-1H-imidazol-2(3H)-one]"
,,10 to 100 nM,30 to 300 nM,"Cc1cc(-c2cc(F)cc(-c3cccc(N4CCN(C(C)(C)C)CC4)c3)c2O)cc(Cl)c1-n1ccn(C)c1=O [Example 927, 1-(3″-(4-(tert-butyl)piperazin-1-yl)-3-chloro-5′-fluoro-2′-hydroxy-5-methyl-[1,1′:3′,1″-terphenyl]-4-yl)-3-methyl-1H-imidazol-2(3H)-one]"
,,1 to 10 nM,0.3 to 30 nM,Cn1ccn(-c2ccc(-c3cc(F)cc(-c4cccc(N5CCN(C6CCC6)CC5)c4)c3O)cc2Cl)c1=O [Example 868]
1 to 10 nM,300 to 3000 nM,,,"O=C1CCCN1c1ccc(-c2cccc(-c3cccc(N4CCNCC4)c3)c2O)cc1F [Example 173, 1-(3-fluoro-2′-hydroxy-3″-(piperazin-1-yl)-[1,1′:3′,1″-terphenyl]-4-yl)pyrrolidin-2-one]"
0.01 to 1 nM,0.3 to 30 nM,,,"COc1ncc(-c2cc(F)cc(-c3ccc(-n4ccn(C)c4=O)c(Cl)c3)c2O)cc1N1CCN(C(C)C)CC1 [Example 738, 1-(3-chloro-5′-fluoro-2′-hydroxy-3′-(5-(4-isopropylpiperazin-1-yl)-6-methoxypyridin-3-yl)-[1,1′-biphenyl]-4-yl)-3-methyl-1H-imidazol-2(3H)-one]"
0.01 to 1 nM,0.3 to 30 nM,,,"CC(C)N1CCN(c2cc(F)cc(-c3cc(F)cc(-c4ccc(-n5ccn(C)c5=O)c(Cl)c4)c3O)c2)CC1 [Example 713, 1-(3-chloro-3″,5′-difluoro-2′-hydroxy-5″-(4-isopropylpiperazin-1-yl)-[1,1′:3′,1″-terphenyl]-4-yl)-3-methyl-1H-imidazol-2(3H)-one]"
0.01 to 1 nM,0.3 to 30 nM,,,"CC(C)N1CCN(c2cc(-c3cc(F)cc(-c4ccc(-n5ccn(C)c5=O)c(Cl)c4)c3O)ccc2C(F)F)CC1 [Example 814, 1-(3-chloro-4″-(difluoromethyl)-5′-fluoro-2′-hydroxy-3″-(4-isopropylpiperazin-1-yl)-[1,1′:3′,1″-terphenyl]-4-yl)-3-methyl-1H-imidazol-2(3H)-one]"
0.01 to 1 nM,0.3 to 30 nM,,,"CN1CCC2CN(c3cc(-c4cc(F)cc(-c5ccc(-n6ccn(C)c6=O)c(Cl)c5)c4O)ccn3)CC21 (stereo not shown) [Example 658, 1-(3-chloro-5′-fluoro-2′-hydroxy-3′-(2-(1-methylhexahydropyrrolo[3,4-b]pyrrol-5(1H)-yl)pyridin-4-yl)-[1,1′-biphenyl]-4-yl)-3-methyl-1H-imidazol-2(3H)-one]"
0.01 to 1 nM,0.3 to 30 nM,,,"Cc1ccc(-c2cc(F)cc(-c3ccc(-n4ccn(C)c4=O)c(Cl)c3)c2O)cc1N1CCN(C(C)(C)C)CC1 [Example 800, 1-(3″-(4-(tert-butyl)piperazin-1-yl)-3-chloro-5′-fluoro-2′-hydroxy-4″-methyl-[1,1′:3′,1″-terphenyl]-4-yl)-3-methyl-1H-imidazol-2(3H)-one]"
,,0.01 to 1 nM,0.3 to 30 nM,"Cn1ccn(-c2ccc(-c3cccc(-c4cccc(N5CCN(C(C)(C)C)CC5)c4)c3O)cc2Cl)c1=O [Example 1021, 1-(3″-(4-(tert-butyl)piperazin-1-yl)-3-chloro-2′-hydroxy-[1,1′:3′,1″-terphenyl]-4-yl)-3-methyl-1H-imidazol-2(3H)-one]"

# Reference: patent US20250179059A1 (The Regents of the University of California, priority 2021, published 2025)
